Values after ≈ are worked out from the molar mass of the structure shown. Read-outs that look alike come from different tables or passages of the source.
System: human platelet aggregation
Format: cell-based
Conditions: human platelet rich plasma, ADP 0.5 mcg/mL
[1] = Table 2, read-out: Inhibition of Human Platelet Aggregation of Formula II Compounds (IC50) Vs ADP
[2] = Table 1, read-out: Inhibition of Human Platelet Aggregation of Formula I Compounds (IC50) vs. ADP

Protocol: The aggregometer method of Born, C. […] Clin. Med. 1964, 64, 548-599 was used to assess the in vitro activity of the various compounds as to the inhibition of adenosine diphosphate (ADP) and collagen-induced platelet aggregation. The human volunteer donor's arm is cleansed with 70% ethyl alcohol. A sterile 20 ml syringe and needle are used to withdraw 20 ml of blood. The blood is immediately added to a test tube containing 3.8% sodium citrate to prevent clotting (1 part citrate to 9 parts blood).
Platelet rich plasma (PRP) was separated by centrifugation for 10 minutes at 1000 rpm (140 xg) from citrated (3.8%) human blood. All glassware used for preparation of PRP is silicon treated. ADP in final concentration of 0.5 mcg/mL or 0.05 mL of a collagen suspension prepared according to the method described by Evans, G., et al., J. Exp. Med., 1968, 128, 877-894 was used to induce aggregation. The various compounds tested were dissolved in dimethylsulfoxide (DMSO) so that 5 mcl added to the platelet rich plasma would yield the desired test concentration. Vehicle control trials were done and compared with aggregation induced in platelet rich plasma containing various concentrations of the test compounds. Dose response curves were obtained and Inhibitor Concentration (IC50) values calculated.

| SMILES | IC50 [1] | IC50 [2] |
| --- | --- | --- |
| COC(=O)COc1cccc(CCn2nnc(C(c3ccccc3)c3ccccc3)n2)c1 [Example 3, Methyl [3-[2-[5-(diphenylmethyl)-2H-tetrazol-2-yl]ethyl]-phenoxy]acetate] | 0.9 µg/mL (≈ 2.1 µM) |  |
| O=C(O)CCCCCCCCn1nnc(C(c2ccccc2)c2ccccc2)n1 [Example 2, 5-(Diphenylmethyl)-2H-tetrazole-1-nonanoic acid] |  | 4.2 µg/mL (≈ 10.7 µM) |
| COC(=O)CCCCCCCCn1nnc(C(c2ccccc2)c2ccccc2)n1 [Example 1, Methyl 5-(diphenylmethyl)-2H-tetrazole-2-nonanoate] |  | > 32 µg/mL |
| O=C(O)COc1cccc(CCn2nnc(C(c3ccccc3)c3ccccc3)n2)c1 [Example 4, [3-[2-[5-(Diphenylmethyl)-2H-tetrazol-2-yl]ethyl]phenoxy]-acetic Acid] | 1.4 µg/mL (≈ 3.38 µM) |  |

From patent US4956376A, “Tetrazole carboxylic acids and esters and inhibition of blood platelet aggregation therewith” (Bristol-Myers Squibb Company, priority 1990, dated 1990)
